Data taken from US12351556B2, “Pyridin-2(1H)one derivatives, their preparation and their use for the treatment of pain” (INSTITUT NATIONAL DE LA SANTE ET DE LA RECHERCHE MEDICALE …, priority 2019, dated 2025).
Entries after “also recorded” stand apart in the source; their conditions may differ. Where two headings read alike, the source gives them in different places.

Key:
p38α MAPK = p38α MAPK (Homo sapiens (Human), UniProt Q16539); experiment: p38 alpha IC50; type: biochemical
Method: (§1) Studies were undertaken to identify the possible biological target(s) of compound 69. The activation in neurons of PK such as PKCγ, ERK or p38 MAPK can contribute to pain hypersensitivity. Therefore, it was decided to screen compound 69 toward a panel of 50 PKs that provide a representative sampling of the human kinome (FIG. 3, Table 3) (Biochem. J. 2007, 408, 297-315). In this panel, p38α MAPK was identified as the privileged target, with 19% of kinase residual activity at 10 μM compound concentration.
(§2) The selectivity of compound 69 was evaluated at 1 μM toward another panel containing all four p38 MAPK isoforms, ERK1, ERK2 as well as other protein kinases close to p38α MAPK in the kinome phylogenetic tree (FIG. 4, Table 4). […] Its IC50 toward p38α MAPK was determined, showing a value in the micromolar range (IC50=3.0±0.1 μM).

JNK1 = JNK1 (Homo sapiens (Human), UniProt P45983); experiment: ICKP protein kinase panel screening; type: biochemical; details: 1 μM, duplicate assays, read-out: mean % residual activity
JNK1, sequence (P45983 whole entry): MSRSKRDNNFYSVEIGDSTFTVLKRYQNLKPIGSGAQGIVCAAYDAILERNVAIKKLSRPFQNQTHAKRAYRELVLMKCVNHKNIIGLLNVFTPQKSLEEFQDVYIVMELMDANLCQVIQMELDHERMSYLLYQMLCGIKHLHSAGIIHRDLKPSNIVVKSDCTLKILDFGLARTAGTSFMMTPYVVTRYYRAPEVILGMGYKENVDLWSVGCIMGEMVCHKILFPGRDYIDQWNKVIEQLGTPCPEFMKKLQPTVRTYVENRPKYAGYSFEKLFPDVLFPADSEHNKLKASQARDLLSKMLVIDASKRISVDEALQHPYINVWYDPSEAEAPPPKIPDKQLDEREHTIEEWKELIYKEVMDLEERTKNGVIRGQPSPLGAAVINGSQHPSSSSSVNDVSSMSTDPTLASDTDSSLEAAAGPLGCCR
Method: (§3) FIG. 3 illustrates the human kinome. Compound 69 was evaluated at the International Center For Kinase Profiling (ICKP, Dundee, Scotland) toward a panel of 50 protein kinases that provide a representative sampling of the human kinome. The results were expressed as the mean percentage of residual activity at 10 μM concentration (duplicate assays). Small disks: ≥65%, larger disk: 19%. The black square indicates the kinome region containing protein kinases evaluated in a second screening (FIG. 4, Table 4). The tree was generated using the Kinome Render software, and the illustration reproduced courtesy of Cell Signaling Technology, Inc. (www.cellsignal.com) Chartier et al PeerJ 2013, 1:e126.
(§4) FIG. 4 illustrates the studies carried out for compounds 67 and 69. Compounds 67 and 69 (FIG. 4B) were evaluated at the International Center For Kinase Profiling (ICKP, Dundee, Scotland) toward a panel of 13 protein kinases. The results (FIG. 4A) were expressed as the mean percentage of residual activity at 1 μM concentration (duplicate assays). Small disks: ≥90%, larger disk: 59%, for both compounds. The tree was generated using the Kinome Render software, and the illustration reproduced courtesy of Cell Signaling Technology, Inc. (www.cellsignal.com) Chartier et al PeerJ 2013, 1:e126.
(§5) Results are expressed as the mean percentage of residual activity at 10 μM (Table 3) or 1 μM (Table 4). They are illustrated on FIGS. 3 and 4.
as §1, §2

p38a MAPK = p38a MAPK (Homo sapiens (Human), UniProt Q16539); experiment: ICKP protein kinase panel screening; type: biochemical; details: 1 μM, duplicate assays, read-out: mean % residual activity
p38a MAPK, sequence (Q16539 whole entry): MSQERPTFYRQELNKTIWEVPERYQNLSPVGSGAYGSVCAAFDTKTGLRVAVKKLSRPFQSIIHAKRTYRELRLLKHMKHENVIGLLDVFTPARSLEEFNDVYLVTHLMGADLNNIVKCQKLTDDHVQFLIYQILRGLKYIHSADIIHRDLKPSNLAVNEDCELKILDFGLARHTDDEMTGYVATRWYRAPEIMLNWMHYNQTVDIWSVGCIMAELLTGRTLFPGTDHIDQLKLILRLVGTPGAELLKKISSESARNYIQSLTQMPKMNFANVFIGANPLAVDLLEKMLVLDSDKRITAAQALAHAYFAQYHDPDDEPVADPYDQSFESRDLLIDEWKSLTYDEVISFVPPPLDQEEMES
Method: as §3, §4, §5, §1, §2

CDK2-Cyclin A = CDK2-Cyclin A (Homo sapiens (Human), UniProt P24941); experiment: ICKP protein kinase panel screening; type: biochemical; details: duplicate assays, read-out: mean % residual activity
Method: as §4, §5, §2

CDK5 = CDK5 (Homo sapiens (Human), UniProt Q00535); experiment: ICKP protein kinase panel screening; type: biochemical; details: duplicate assays, read-out: mean % residual activity
CDK5, sequence (Q00535 whole entry): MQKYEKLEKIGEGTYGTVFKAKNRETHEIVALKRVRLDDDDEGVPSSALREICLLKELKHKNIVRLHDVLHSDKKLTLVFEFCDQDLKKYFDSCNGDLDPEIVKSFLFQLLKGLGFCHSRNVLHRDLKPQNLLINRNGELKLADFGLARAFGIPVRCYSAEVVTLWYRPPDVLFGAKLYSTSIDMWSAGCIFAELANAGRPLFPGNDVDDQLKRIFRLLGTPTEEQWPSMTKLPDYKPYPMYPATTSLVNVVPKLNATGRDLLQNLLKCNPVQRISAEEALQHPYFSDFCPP
CDK5, sequence (Q15078 whole entry partner): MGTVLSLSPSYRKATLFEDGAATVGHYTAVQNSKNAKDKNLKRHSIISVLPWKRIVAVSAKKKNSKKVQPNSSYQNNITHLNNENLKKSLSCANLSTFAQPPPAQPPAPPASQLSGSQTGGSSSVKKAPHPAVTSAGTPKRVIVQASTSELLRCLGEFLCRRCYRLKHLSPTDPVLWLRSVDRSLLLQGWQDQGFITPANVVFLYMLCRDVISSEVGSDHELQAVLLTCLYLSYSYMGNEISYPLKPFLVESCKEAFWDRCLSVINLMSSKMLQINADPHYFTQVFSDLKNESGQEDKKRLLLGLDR
Method: as §4, §5, §2

ERK1 = ERK1 (Homo sapiens (Human), UniProt P27361); experiment: ICKP protein kinase panel screening; type: biochemical; details: duplicate assays, read-out: mean % residual activity
ERK1, sequence (P27361 whole entry): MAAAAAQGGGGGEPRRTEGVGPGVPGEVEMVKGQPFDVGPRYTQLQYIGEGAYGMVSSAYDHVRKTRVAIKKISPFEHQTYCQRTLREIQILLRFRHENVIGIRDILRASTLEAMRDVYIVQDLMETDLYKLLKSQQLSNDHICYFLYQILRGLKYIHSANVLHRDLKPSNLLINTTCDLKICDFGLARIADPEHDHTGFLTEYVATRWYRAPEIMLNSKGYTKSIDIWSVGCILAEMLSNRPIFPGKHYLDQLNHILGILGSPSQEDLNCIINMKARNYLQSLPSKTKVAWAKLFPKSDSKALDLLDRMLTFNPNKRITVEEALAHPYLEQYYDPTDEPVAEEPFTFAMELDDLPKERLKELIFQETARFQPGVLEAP
Method: as §4, §5, §2

ERK2 = ERK2 (Homo sapiens (Human), UniProt P28482); experiment: ICKP protein kinase panel screening; type: biochemical; details: duplicate assays, read-out: mean % residual activity
Method: as §4, §5, §2

ERK5 = ERK5 (Homo sapiens (Human), UniProt Q13164); experiment: ICKP protein kinase panel screening; type: biochemical; details: duplicate assays, read-out: mean % residual activity
ERK5, sequence (Q13164 whole entry): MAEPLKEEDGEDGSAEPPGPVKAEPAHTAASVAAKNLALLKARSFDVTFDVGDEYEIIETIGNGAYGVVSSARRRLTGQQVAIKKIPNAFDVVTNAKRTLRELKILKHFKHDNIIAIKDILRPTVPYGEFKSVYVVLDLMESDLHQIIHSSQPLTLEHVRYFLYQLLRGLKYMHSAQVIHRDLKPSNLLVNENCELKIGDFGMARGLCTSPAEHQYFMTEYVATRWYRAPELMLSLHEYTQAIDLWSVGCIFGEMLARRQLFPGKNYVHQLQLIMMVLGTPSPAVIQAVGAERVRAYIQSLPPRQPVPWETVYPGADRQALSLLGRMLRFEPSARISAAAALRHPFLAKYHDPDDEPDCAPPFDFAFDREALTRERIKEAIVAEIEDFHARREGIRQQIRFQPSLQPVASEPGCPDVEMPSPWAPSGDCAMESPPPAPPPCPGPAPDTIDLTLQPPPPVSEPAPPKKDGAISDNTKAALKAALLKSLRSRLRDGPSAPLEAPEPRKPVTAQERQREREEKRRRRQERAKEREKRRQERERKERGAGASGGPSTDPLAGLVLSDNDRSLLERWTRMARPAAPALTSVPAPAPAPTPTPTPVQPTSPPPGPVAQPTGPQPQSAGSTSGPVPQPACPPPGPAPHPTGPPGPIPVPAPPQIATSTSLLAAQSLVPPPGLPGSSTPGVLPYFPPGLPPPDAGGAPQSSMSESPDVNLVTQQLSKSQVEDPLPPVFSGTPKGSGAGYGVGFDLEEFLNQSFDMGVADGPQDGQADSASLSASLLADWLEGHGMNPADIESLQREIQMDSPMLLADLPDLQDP
Method: as §4, §5, §2

ERK8 = ERK8 (Homo sapiens (Human), UniProt Q8TD08); experiment: ICKP protein kinase panel screening; type: biochemical; details: duplicate assays, read-out: mean % residual activity
ERK8, sequence (Q8TD08 whole entry): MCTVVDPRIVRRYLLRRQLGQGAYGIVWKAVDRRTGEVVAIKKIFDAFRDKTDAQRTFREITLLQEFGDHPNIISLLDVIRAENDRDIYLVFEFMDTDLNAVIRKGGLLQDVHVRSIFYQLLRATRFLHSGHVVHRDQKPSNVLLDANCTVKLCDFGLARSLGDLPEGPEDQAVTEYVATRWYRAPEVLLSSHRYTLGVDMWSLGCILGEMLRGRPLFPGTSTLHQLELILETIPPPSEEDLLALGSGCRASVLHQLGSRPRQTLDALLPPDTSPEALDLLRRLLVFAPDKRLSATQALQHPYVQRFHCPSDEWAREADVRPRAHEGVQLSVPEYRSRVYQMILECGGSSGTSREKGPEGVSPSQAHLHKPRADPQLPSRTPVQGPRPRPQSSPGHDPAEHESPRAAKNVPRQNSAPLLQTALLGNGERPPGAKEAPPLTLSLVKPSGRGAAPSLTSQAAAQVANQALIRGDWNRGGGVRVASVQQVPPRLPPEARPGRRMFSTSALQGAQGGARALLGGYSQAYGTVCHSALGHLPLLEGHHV
Method: as §4, §5, §2

JNK2 = JNK2 (Homo sapiens (Human), UniProt P45984); experiment: ICKP protein kinase panel screening; type: biochemical; details: duplicate assays, read-out: mean % residual activity
Method: as §4, §5, §2

JNK3 = JNK3 (Homo sapiens (Human), UniProt P53779); experiment: ICKP protein kinase panel screening; type: biochemical; details: duplicate assays, read-out: mean % residual activity
JNK3, sequence (P53779 whole entry): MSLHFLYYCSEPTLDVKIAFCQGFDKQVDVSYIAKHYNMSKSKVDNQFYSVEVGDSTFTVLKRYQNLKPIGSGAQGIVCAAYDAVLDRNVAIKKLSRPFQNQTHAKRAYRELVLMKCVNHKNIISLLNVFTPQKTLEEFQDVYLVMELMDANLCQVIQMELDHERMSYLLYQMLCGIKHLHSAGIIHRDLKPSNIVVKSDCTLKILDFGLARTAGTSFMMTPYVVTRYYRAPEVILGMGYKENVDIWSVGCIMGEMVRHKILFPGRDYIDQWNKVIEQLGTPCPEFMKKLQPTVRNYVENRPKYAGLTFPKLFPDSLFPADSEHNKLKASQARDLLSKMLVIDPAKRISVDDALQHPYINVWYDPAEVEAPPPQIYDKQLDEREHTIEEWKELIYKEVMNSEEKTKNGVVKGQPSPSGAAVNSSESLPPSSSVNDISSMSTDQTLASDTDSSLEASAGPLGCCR
Method: as §4, §5, §2

p38b MAPK = p38b MAPK (Homo sapiens (Human), UniProt Q15759); experiment: ICKP protein kinase panel screening; type: biochemical; details: duplicate assays, read-out: mean % residual activity
p38b MAPK, sequence (Q15759 whole entry): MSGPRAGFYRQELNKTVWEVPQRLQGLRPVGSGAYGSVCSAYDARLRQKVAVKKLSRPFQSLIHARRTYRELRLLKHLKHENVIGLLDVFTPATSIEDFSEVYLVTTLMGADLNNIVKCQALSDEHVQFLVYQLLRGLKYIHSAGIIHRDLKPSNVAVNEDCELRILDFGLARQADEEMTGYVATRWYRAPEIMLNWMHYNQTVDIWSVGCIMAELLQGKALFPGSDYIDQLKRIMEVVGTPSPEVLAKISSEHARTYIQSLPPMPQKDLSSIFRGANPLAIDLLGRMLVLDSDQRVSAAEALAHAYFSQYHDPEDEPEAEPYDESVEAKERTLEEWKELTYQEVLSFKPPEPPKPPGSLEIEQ
Method: as §4, §5, §2

p38d MAPK = p38d MAPK (Homo sapiens (Human), UniProt O15264); experiment: ICKP protein kinase panel screening; type: biochemical; details: duplicate assays, read-out: mean % residual activity
p38d MAPK, sequence (O15264 whole entry): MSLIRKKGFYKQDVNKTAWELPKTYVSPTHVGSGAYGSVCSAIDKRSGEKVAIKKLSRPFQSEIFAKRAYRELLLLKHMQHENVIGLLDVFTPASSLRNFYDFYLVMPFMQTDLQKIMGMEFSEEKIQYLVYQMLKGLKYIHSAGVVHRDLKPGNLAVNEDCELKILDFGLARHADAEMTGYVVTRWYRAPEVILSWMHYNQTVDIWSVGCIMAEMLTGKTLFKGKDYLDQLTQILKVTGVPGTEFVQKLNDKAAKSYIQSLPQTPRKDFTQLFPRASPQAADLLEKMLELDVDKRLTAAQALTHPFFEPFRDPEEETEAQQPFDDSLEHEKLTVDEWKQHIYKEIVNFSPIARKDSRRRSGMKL
Method: as §4, §5, §2

p38g MAPK = p38g MAPK (Homo sapiens (Human), UniProt P53778); experiment: ICKP protein kinase panel screening; type: biochemical; details: duplicate assays, read-out: mean % residual activity
p38g MAPK, sequence (P53778 whole entry): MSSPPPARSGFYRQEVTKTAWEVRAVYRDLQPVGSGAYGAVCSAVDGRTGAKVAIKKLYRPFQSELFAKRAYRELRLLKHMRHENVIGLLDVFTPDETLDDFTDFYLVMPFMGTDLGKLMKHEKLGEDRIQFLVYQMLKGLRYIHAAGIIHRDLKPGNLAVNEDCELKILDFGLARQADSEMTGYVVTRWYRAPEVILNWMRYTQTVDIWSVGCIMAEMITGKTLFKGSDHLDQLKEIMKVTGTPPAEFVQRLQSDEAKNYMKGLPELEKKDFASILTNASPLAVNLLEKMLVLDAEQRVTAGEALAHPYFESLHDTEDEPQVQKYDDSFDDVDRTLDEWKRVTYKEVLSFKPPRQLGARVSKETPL
Method: as §4, §5, §2

[1] = test system: panel of 13 protein kinases; experiment: ICKP screening, whole panel of 13 protein kinases; type: biochemical, human; details: 1 μM
Method: as §4, §5, §2

[2] = test system: inflammatory MA (face CFA model); experiment: Face Complete Freund's Adjuvant (CFA) model of inflammatory mechanical allodynia; type: in vivo; details: rat, intracisternal 5 μL at 100 μM
Method: FIG. 1 illustrates the results obtained by the intracisternal application of compounds 19-24, 66-72 and 74-82. These compounds prevent face MA in a rat model of inflammatory pain (Complete Freund's Adjuvant (CFA), n=4-6 rats for each compound). For this assay, compounds (5 μL at 100 μM) or control vehicle were intra-cisternally administred 30 min before CFA injection.
Face Complete Freund's Adjuvant (CFA) Model.
CFA (Becton Dickinson) was dissolved in saline solution containing Tween 80 and paraffin oil and conserved at 4° C. For the behavioral tests, animals were briefly (<2 min) anesthetized using a mask with 2% isoflurane and received a subcutaneous injection of 25 μL of CFA (2.5 mg/kg) solution into the right vibrissa pad using a 27 Ga needle coupled to a 25 μL Hamilton syringe, as described previously. After injection, animals were awakened from anesthesia and placed in the behavioral experimental room, followed by a 120 min mechanical testing period.
Intracisternal Injection:
For investigating the effects of synthetized compounds upon mechanical allodynia, animals were briefly (<2 min) anesthetized using a mask with 2% isoflurane and received an intracisternal injection of 5 μL of compound (100 μM) or vehicle alone (saline+1% DMSO) using a 10 μL Hamilton syringe. After recovery (<2 min), rats were placed in an observation field (0.6×0.6 m square) under red light for a period test. 6-g von Frey filament was gently applied every 15 or 30 min onto the orofacial region by a first experimenter. The behavioral responses were observed and quantified by a second experimenter (see below).
Behavioral Responses to Normally Innocuous (6-g Von Frey Filament) Mechanical Stimulation.
The behavioral responses procedure was previously developed by Vos et al. 1994. A rat's response to mechanical stimulation consisted of one or more of the following elements: (1) detection, rat turn head toward stimulus; (2) withdrawal reaction, rat pull paw away or turn head away or pull it briskly backward when stimulation is applied (a withdrawal reaction is assumed to include a detection element preceding the head withdrawal and therefore consists of two responses elements); (3) escape/attack, rats avoid further contact with the stimulus, either passively by moving their bodies away from the stimulus, or actively by attacking the tip of the […]; (4) asymmetric grooming, rats display an uninterrupted series of at least three wash strokes directed to the stimulated area.
The in vivo efficacy of some compounds was evaluated on a rat model of inflammatory MA (face CFA model; Alba-Delgado et al J. Neurosci. 2018, 38, 10489-10504) (FIG. 1). After receiving a subcutaneous injection of 25 μL of CFA (2.5 mg/kg) into the right vibrissa pad, rats develop a MA that lasts days. […] In this model of inflammatory MA, MA was suppressed in compound 69 treated rats, in comparison to animals treated with vehicle (FIG. 2A).

p38α MAPK, sequence (Q16539 whole entry): as the sequence (Q16539 whole entry) above

For `O=c1[nH]cc(Nc2ccccc2)cc1-c1cccc2[nH]ccc12` [Compound 67, 3-(1H-Indol-4-yl)-5-(phenylamino)pyridin-2(1H)-one], the IC50 (p38α MAPK; p38 alpha, read-out: Mean IC50) was 3.03 µM, the IC50 (p38α MAPK; read-out: IC50 toward p38α MAPK) was 3 ± 0.1 µM and the remaining activity at 1 µM (JNK1) was 94%. The remaining activity at 1 µM (p38a MAPK) was 59%, the remaining activity at 1 µM (CDK2-Cyclin A) was 111% and the remaining activity at 1 µM (CDK5) was 101%. It also gave a remaining activity at 1 µM (ERK1) of 122%, a remaining activity at 1 µM (ERK2) of 108% and a remaining activity at 1 µM (ERK5) of 113%. For the same compound, the remaining activity at 1 µM (ERK8) was 128%, the remaining activity at 1 µM (JNK2) was 103% and the remaining activity at 1 µM (JNK3) was 98%. The remaining activity at 1 µM (p38b MAPK) was 112%, the remaining activity at 1 µM (p38d MAPK) was 113% and the remaining activity at 1 µM (p38g MAPK) was 107%. The “mean percentage of residual activity, other kinases of the panel (small disks)” value ([1]; all kinases except p38α MAPK) was ≥ 90%, the “selectivity for p38α MAPK over the other protein kinases incl. p38 isoforms” value ([1]; panel of 13 kinases) was “same selectivity profile; also recorded: selective p38α MAPK inhibitor” and the “prevention of inflammatory MA (allodynic score, 6-g von Frey filament)” value ([2]; 30 min before CFA) was “strong anti-allodynic activity; also recorded: most active”. The “inhibition of inflammatory MA” value ([2]; 30 min before CFA injection) was 98%.
